Biological target: T1, β-secretase (BACE) (Homo sapiens, UniProt P56817)
T1 construct: purchased Panvera
Test: BACE FS1% Inhibition Assay (Example 160)
Assay type: biochemical
Experimental: The following reagents were used in this assay: sodium acetate, PEB8000 (Sigma), DMSO, HEPES, FS1 substrate [[…]], β-secretase (BACE) (Panvera), and 96-well plate (HE microplate, Molecular Devices). […] The FS1-substrate stock solution was prepared in DMSO as a 10 mg/mL solution. The FS1-substrate working solution was prepared by diluting the 10 mg/mL stock solution with substrate assay buffer to a final concentration of 300 μg/mL. The β-secretase (BACE) working solution was prepared by diluting a 0.83 mg/mL BACE stock solution with enzyme assay buffer to a final concentration of 4 μg/mL. Test compounds were dissolved in DMSO to 10 mM. […] The screening procedure for this assay was as follows: 15 μL of BACE working solution was pipetted into each well of a 96-well plate. To each well was the pipetted 2 μL of test compound at the selected concentration. Test compound and BACE were then mixed with a pipettor and incubated for 20 min at room temperature. To each well was then added 10 μL of the FS1 substrate working solution. The plates were then incubated for 1 hour at room temperature. […] The procedure for the blank was as follows. 15 μL of assay buffer was pipetted into each well to be used as a blank control. To each well was then added 2 μL of vehicle and 10 μL of FS1-substrate working solution. The plates were then incubated for 1 hour at room temperature. […] The procedure for the positive control was as follows: 15 μL of BACE working solution was pipetted into each well to be used as a positive control. To each well was then pipetted 2 μL of vehicle. Vehicle and BACE were then mixed with a pipettor and incubated for 20 min at room temperature. To each well was then added 10 μL of the FS1 substrate working solution. The plates were then incubated for 1 hour at room temperature. […] For test compounds, % inhibition was determined at each concentration as follows: [formula]

T1 sequence (P56817 46-501): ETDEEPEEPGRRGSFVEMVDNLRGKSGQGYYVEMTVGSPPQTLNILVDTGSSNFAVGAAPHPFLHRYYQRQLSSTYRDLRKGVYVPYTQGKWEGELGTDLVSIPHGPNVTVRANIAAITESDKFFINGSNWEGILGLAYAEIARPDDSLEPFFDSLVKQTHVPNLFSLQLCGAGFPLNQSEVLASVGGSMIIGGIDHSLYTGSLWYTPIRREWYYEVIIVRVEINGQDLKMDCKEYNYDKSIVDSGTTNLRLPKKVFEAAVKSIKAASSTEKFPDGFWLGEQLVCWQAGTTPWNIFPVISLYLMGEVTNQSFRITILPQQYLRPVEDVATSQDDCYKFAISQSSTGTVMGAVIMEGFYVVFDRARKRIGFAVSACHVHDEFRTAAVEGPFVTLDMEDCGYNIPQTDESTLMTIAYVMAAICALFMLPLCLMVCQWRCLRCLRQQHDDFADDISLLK

% Inhibition (FS) (0.3 μM test compound) [%]	% Inhibition (FS) (1 μM test compound) [%]	% Inhibition (FS) (3 μM test compound) [%]	% Inhibition (FS) (0.3 μM test compound, 0.3 µM) [%]	% Inhibition (FS) (1 μM test compound, 1 µM) [%]	% Inhibition (FS) (3 μM test compound, 3 µM) [%]	Structure (SMILES)
38	97					COC(=O)C1CCCC(N(C)C(=O)CCC(C2CCCCC2)N2Cc3cc(Oc4ccccc4)ccc3N=C2N)C1 (mixture of isomers) [Compound 777]
32	71	111				CCCCCC(CCC(=O)NC1CCCCC1)N1Cc2cc(Oc3ccccc3)ccc2N=C1N (stereo not drawn) [Compound 149]
65	96	120				NC1=Nc2ccc(Oc3ccccc3)cc2CN1CCNC(=O)C1(c2ccc(Cl)cc2)CCCC1 [Compound 196]
<30	75	110				COc1ccc(C(CCC(=O)N(C)C2CCCCC2)N2Cc3cc(Oc4ccccc4)ccc3N=C2N)cc1 (stereo not drawn) [Compound 298]
<30	72	108				CCCC(CCC)C(=O)NCC(C1CCCCC1)N1Cc2cc(Oc3ccccc3)ccc2N=C1N (stereo not drawn) [Compound 302]
114	118	125				CC(C)[C@H](CNC(=O)C1CCCCC1)N1Cc2cc(Oc3ccccc3)ccc2N=C1N [Compound 561]
106	118	128				CC(C)C(CNC(=O)C12CC3CC(CC(C3)C1)C2)N1Cc2cc(Oc3ccccc3)ccc2N=C1N (stereo not drawn) [Compound 562]
			<30	<30	48	CN(C(=O)CCC(C1CCCCC1)N1Cc2cc(Oc3ccccc3)ccc2N=C1N)C1CCC(O)CC1 (stereo not drawn) [Compound 639]
68	98					Cc1ccccc1-c1ccc2c(c1)CN(CCNC(=O)CCC(C)C)C(N)=N2 [Compound 661]
66	97					CCCCC(CC)C(=O)NCCN1Cc2cc(-c3ccccc3C)ccc2N=C1N (stereo not drawn) [Compound 662]
<30	<30	<30				NC1=Nc2ccc(-c3ccc4ccccc4c3)cc2CN1CCNC(=O)C1CCC1 [Compound 663]
<30	<30	<30				NC1=Nc2ccc(-c3ccc4ccccc4c3)cc2CN1CCNC(=O)C1CCCC1 [Compound 664]
35	<30	<30				NC1=Nc2ccc(-c3ccc4ccccc4c3)cc2CN1CCNC(=O)C12CC3CC(CC(C3)C1)C2 [Compound 665]
37	<30	<30				CCCC(=O)NCCN1Cc2cc(-c3ccc4ccccc4c3)ccc2N=C1N [Compound 666]
33	<30	<30				CC(C)(C)C(=O)NCCN1Cc2cc(-c3ccc4ccccc4c3)ccc2N=C1N [Compound 667]
<30	<30	<30				CC(C)CCC(=O)NCCN1Cc2cc(-c3ccc4ccccc4c3)ccc2N=C1N [Compound 668]
<30	<30	32				CCCCC(CC)C(=O)NCCN1Cc2cc(-c3ccc4ccccc4c3)ccc2N=C1N (stereo not drawn) [Compound 669]
<30	<30	44				NC1=Nc2ccc(-c3cnc4ccccc4c3)cc2CN1CCNC(=O)C1CCC1 [Compound 670]
<30	30	<30				NC1=Nc2ccc(-c3cnc4ccccc4c3)cc2CN1CCNC(=O)C1CCCC1 [Compound 671]
<30	<30	<30				NC1=Nc2ccc(-c3cnc4ccccc4c3)cc2CN1CCNC(=O)C12CC3CC(CC(C3)C1)C2 [Compound 672]
